The results in this text go back to patent US20230150920A1, “SALTS AND SOLID FORMS OF 4-BROMO-2,5-DIMETHOXYPHENETHYLAMINE” (priority 2021, published 2023).

The subject of data set [1] is Male Sprague-Dawley rats. Kind of data set: Rat elevated zero-maze model of anxiety. It is filed as in vivo. The text has this: The rat zero-maze model is a refined alternative to the plus-maze, the most widely used animal model of anxiety, and consists of an elevated annular platform, divided equally into four quadrants. Two opposite quadrants are enclosed by Perspex walls on both the inner and the outer edges of the platform, while the remaining two opposite quadrants are open being enclosed only by a Perspex “lip”. Animals will show a preference for the closed areas, and avoidance of the open sections is assumed to stem from a rodent's natural aversion to open, exposed spaces. A reduction in the amount of activity on the open areas is considered to reflect an increase in anxiety (shepherd 1994). The ethologically-based behavior rearing was also assessed as an index of anxiety with a decrease in rearing indicative of an […] effect [(a) File 1985, Boissier 1976; (b) File, S. E. (1985). What can be learned from the effects of benzodiazepines on exploratory behavior? Neuroscience & Biobehavioral Reviews, 9(1), 45-54. doi:10.1016/0149-7634(85)90031-4; (c) Boissier, J. R., P. Simon and P. Soubrie. New approaches to the study of anxiety and anxiolytic drugs in animals. […]
Subjects were weighed and tail marked before being injected. After a specified pre-treatment time, subjects were placed in a closed quadrant and a 5-min test period were recorded on videotape for subsequent analysis. […] Animals are scored as being in the open area when all four paws were in an open quadrant and in the closed area only when all four paws have passed over the open-closed divide. […]
30 male Sprague-Dawley rats in treatment groups of 5, was intraperitoneally dosed with either Vehicle 1 (saline) or 2C-B at 1 of 4 dose levels (0.1, 1, 2 & 5 mg/kg) or chlordiazepoxide (6 mg/kg) in 5 mL/kg injection volumes. Thirty min later at T=0, rats were individually placed in a closed arm of the zero-maze and behavior was assessed by a “blind” observer using remote video monitoring over the subsequent 5 min. […]
Data was analysed with Statistica software (Statsoft USA version 10.0). […]

The subject of data set [2] is TNF-α. In words: LPS-induced TNF-α release ex vivo in whole blood of dosed rats. Set-up: species or system rat. The following applies: for TNF alpha levels, LPS low dose: LPS 1 μg/mL. The source says: The bacterial endotoxin lipopolysaccharide (LPS) induces a strong inflammatory response from normal animal immune systems. This response is triggered when LPS is recognized by the innate immune system via the Toll Like Receptor (TLR4) particularly those located on monocytes and macrophages although they are also located on a wide variety of other cell types. Stimulation of the TLR4 receptor leads to recruitment and activation of IL-1R associated kinase 1 (IRAK-1) initiating a series of signalling events in immunoregulatory pathways such as activation of NF kappa B, p38 MAP Kinase, ERK and JNK and AP-1. These changes promote gene transcription and thereby potentiate secretion of pro inflammatory factors such as TNF alpha and other cytokines (Fang et al., 2004).
Determination of the effects of novel agents against LPS-induced TNF alpha release ex vivo provides an assessment of whether the plasma level of compound achieved after administration to whole animal is capable of affecting the inflammatory response.
Dexamethasone disodium phosphate salt was formulated in water to a concentration of 0.6 mg free base/mL to give a dose of 3 mg free base/kg when orally administered in a 5 mL/kg dosing volume. 2C-B hydrochloride was formulated in Vehicle 1 (saline) at concentrations of […]. This provided doses of 0.1 and 1 mg/kg respectively when injected ip in 5 mL/kg dosing volumes. Ex vivo formulation
LPS were dissolved in saline to concentrations of 0.2 and 0.6 mg/mL. This will then be diluted 10 fold in saline to give concentrations of 0.02 and 0.06 mg/mL that will provide concentrations of 1 and 3 μg/mL when 15 uL is added to 285 of whole blood (20 fold dilution).
Twenty four male SD rats (approximately 200 g), were group housed. Animals were maintained under a 12 h light/dark cycle, where temperature and humidity are controlled. Animals were allowed free access to food and water.
Rats were allocated to treatment groups of 6 and habituated to the test room on the day prior to the study. On the test day, rats were dosed orally with either water or dexamethasone 3 mg/kg in 5 mL/kg dosing volumes. Thirty minutes later the animals were dosed intraperitoneally with either saline or 2C-B in 5 mL/kg dosing volumes. After a further 90 minutes terminal blood samples were collected by cardiac puncture under CO2. • Three aliquots, each of 285 μL from each animal's blood sample were pipetted into separate Eppendorf tubes. • Tubes were left for 10 min • Assay tubes will then be mixed gently before adding 15 μL of saline or LPS to give final concentrations of 1 and 3 μg/ml. • After a further gentle mixing, assay tubes were placed in an incubator at 37° C. for 24 h. • At the end of this time, the whole blood aliquots were spun down to plasma. The plasma were then removed and placed in duplicate 96 well plates on dry ice. Plates were stored at −20° C. until analyzed for TNF-α after 10-fold dilution.
The TNF-alpha content of the collected rat plasmas samples were measured using a Rat TNF-alpha Quantikine ELISA Kit (cat no RTA00).
A 1-way ANOVA was conducted across the vehicle and 3 treatment groups (0.1 mg/kg 2C-B IP, 1 mg/kg 2C-B IP, and 3 mg/kg dexamethasone PO) independently for 3 stimulation conditions (no stimulation [saline], 1 μg/mL LPS, and 3 μg/mL LPS). […] Each group was compared to the vehicle group and a p-value for treatment determined by Fishers Least Significant Difference (LSD) test, without statistical penalty for multiple comparisons. […]

Data set [3] in a line: Dynamic vapor sorption/desorption (DVS), hygroscopicity. It is filed as physicochemical. As for the experimental part: The active pharmaceutical ingredient (API), 4-bromo-2,5-dimethoxyphenethylamine hydrochloride, is characterized to evaluate its physical properties. The evaluation is performed by X-ray powder diffraction (XRPD), polarized light microscopy (PLM), differential scanning calorimetry (DSC), thermogravimetry (TG), dynamic vapor sorption/desorption (DVS), and/or solubility testing in organic solvents, water, and mixed solvent systems. XRPD data are used to assess crystallinity. PLM data are used to evaluate crystallinity and particle size/morphology. DSC data are used to evaluate melting point, thermal stability, and crystalline form conversion. TG data are used to evaluate if the API is a solvate or hydrate, and to evaluate thermal stability. DVS data are used to evaluate hygroscopicity of the API and if hydrates can be formed at high relative humidity.
The form characterized in FIGS. 1 and 2 is designated as Form A herein. […] A sharp endotherm at 238° C. in the DSC thermogram is attributed to melting.

Data set [4] in a line: Dynamic vapor sorption (DVS) with XRPD of the post-DVS sample. It counts as physicochemical. As for the experimental part:
Dynamic Vapor Sorption (DVS) analysis was carried out using a TA Instruments Q5000 Dynamic Vapor Sorption analyzer. The instrument was calibrated with standard weights and a sodium bromide standard for humidity. Approximately 10-25 mg of sample was loaded into a metal-coated quartz pan for analysis. The sample was analyzed at 25° C. with a maximum equilibration time of one hour in 10% relative humidity (RH) steps from 5 to 95% RH (adsorption cycle) and from 95 to 5% RH (desorption cycle). The movement from one step to the next occurred either after satisfying the equilibrium criterion of 0.01% weight change or, if the equilibrium criterion was not met, after one hour. The percent weight change values were calculated using Microsoft Excel.
(§1) The DVS analysis was carried out using a TA Instruments Q5000 Dynamic Vapor Sorption analyzer. 13.5 mg of sample was loaded into a metal-coated quartz pan for analysis. After equilibration to 5% relative humidity (RH), the sample was analyzed at 25° C. in 10% RH steps from 5 to 95% RH (adsorption cycle) and from 95 to 5% RH (desorption cycle). The movement from one step to the next occurred either after satisfying the equilibrium criterion of 0.01% weight change in 5 minutes or, if the equilibrium criterion was not met, after 90 minutes. The percent weight change values are calculated using Microsoft Excel®.
as §1, with “DVS analyses were” for “DVS analysis was”, “analyzer. Approximately 7-11” for “analyzer. 13.5”, “equilibration at” for “equilibration to”, “values were” for “values are”
as §1, with “analyzer. Approximately 2” for “analyzer. 13.5”, “equilibration at” for “equilibration to”, “values were” for “values are”

Data set [5] is described as follows: Water activity slurry experiments, 2C-B HCl Form A vs Form C. It is filed as physicochemical. The following applies: slurry of Form A at ambient temperature.

Entries after “also recorded” stand apart in the source; their conditions may differ. A value given as a limit tells only on which side of the number the result lay.

Consider `COc1cc(CCN)c(OC)cc1Br` [2C-B, 4-bromo-2,5-dimethoxyphenethylamine], for which the frequency of rearing result in data set [1] (ip 1 mg/kg, 2 mg/kg, and 5 mg/kg doses) is “decreased the frequency of rearing as effectively as the benzodiazepine chlordiazepoxide”; in data set [1] (ip 5 mg/kg), “greatest numerical effect”; in data set [1] (ip 0.1, 1, 2 & 5 mg/kg, 30 min before 5-min test), “significantly reduced the number of rears in a dose dependent manner; also recorded: as effective as the chlordiazepoxide control”. The “TNF alpha levels, LPS low dose” value in data set [2] (0.1 mg/kg ip) is recorded as “no difference vs placebo”; in data set [2] (1 mg/kg ip), “trended towards significance”. For the same compound, in data set [2] (1 mg/kg ip, LPS 3 μg/ml, 1-way ANOVA), the “TNF alpha levels, high level of LPS” value is reported as “significant decrease in TNF alpha levels”. Also, the “TNF alpha levels in the absence of LPS” value in data set [2] (no stimulation (saline), 2C-B 0.1 and 1 mg/kg ip, dexamethasone 3 mg/kg po) is on record as “no effect”. For the same compound, the “amount of TNF alpha released in response to LPS” value in data set [2] (pre-treatment in vivo ip, LPS 1 and 3 μg/mL) is “reduced the amount of TNF alpha released in response to LPS”.

`COc1cc(CCN)c(OC)cc1Br.Cl` [Form A, 4-bromo-2,5-dimethoxyphenethylamine hydrochloride]: the “hygroscopicity based on DVS data” value in data set [3] is on record as “slightly hygroscopic”; in data set [4] (25° C., 5 to 95% RH), “slightly hygroscopic”. Moreover, in data set [3] (loses all the gained moisture), the “Form change after moisture sorption/desorption (DVS)” value is “without form change”. Moreover, in data set [4] (desorption 95 to 5% RH), the “behaviour on desorption / form change by XRPD of post-DVS sample” value is listed as “loses all the gained moisture without form change”. In data set [5] (hydrochloride), the “water activities at which the form was obtained or remained unchanged” value was not above 0.5.

`COc1cc(CCN)c(OC)cc1Br.Cl` [Form C, 4-bromo-2,5-dimethoxyphenethylamine HCl]: the “water activities at which the form was obtained or remained unchanged” value in data set [5] (HCl) is recorded as not below 0.6.
